Source: patent US8524195B2, “Iron oxide nanoparticles as MRI contrast agents and their preparing method” (Korea Basic Science Institute, priority 2010, dated 2013)

Test system: colon cancer (HT-29) cells
Assay: XTT assay, relative viability of colon cancer (HT-29) cells
Assay type: cell-based
Conditions: after 24 hours
Procedure: Samples were prepared by introducing the nano contrast agents (CIONPs) and the iron oxide (Fe3O4) nanoparticle drug carriers (DOX-CIONPs) prepared in Examples 2 and 3 and anti-cancer medicines (Doxorubicine) into colon cancer (HT-29) cells by concentrations of 0.001, 0.01, 0.1, 1 and 10 mM. After 24 hours, XTT reagent was added to each sample and relative viability of cancer cells according to the concentration of CIONPs, DOX-CIONPs and anti-cancer medicines (Doxorubicine) were measured. The measurement was carried out by comparing optical absorbances of formazan products from the cancer cells using an absorption spectrometer (XTT assay).

With `COc1cccc2c1C(=O)c1c(O)c3c(c(O)c1C2=O)C[C@@](O)(C(=O)CO)C[C@@H]3O[C@H]1C[C@H](N)[C@H](O)[C@H](C)O1` [Doxorubicine] the cancer cells perished (0.1 mM) was 35%, the cancer cells perished (1 mM) was 60% and the cancer cells perished (10 nm (so in the source)) was 62%.
